Reference: ChEMBL document CHEMBL1153972, “Solution studies on the complex of 4'-epiadriamycin-d-(CGATCG)2 followed by time-resolved fluorescence measurement, diffusion ordered spectroscopy and restrained molecular dynamics simulations” (Bioorg Med Chem, 2009)
The source made the active and inactive calls. The rule behind the calls is not given here.

Tests used:
Format in all cases: nucleic-acid assay
Nucleic Acid [1] = assay: Binding affinity to DNA d-(CGATCG)2 by NMR study
Nucleic Acid [2] = assay: Binding affinity to DNA d-(CGATCG)2 at drug to DNA ratio of 2:1 by time resolved fluorescence measurements
Nucleic Acid [3] = assay: Binding affinity to DNA d-(CGATCG)2 at drug to DNA ratio of 2:1 by 2D NOESY experiment
Nucleic Acid [4] = assay: Binding affinity to DNA d-(CGATCG)2 assessed as rate of diffusion by diffusion ordered spectroscopy study

- Activity (Nucleic Acid [1]): Active
- Activity (Nucleic Acid [2]): Active
- Activity (Nucleic Acid [4]): Active
SMILES: COc1cccc2c1C(=O)c1c(O)c3c(c(O)c1C2=O)C[C@@](O)(C(=O)CO)C[C@@H]3O[C@H]1C[C@H](N)[C@@H](O)[C@H](C)O1
- Activity (Nucleic Acid [3]): Active
